Test results published in PMC10708537, “Tetrahydrocurcumin Derivatives Enhanced the Anti-Inflammatory Activity of Curcumin: Synthesis, Biological Evaluation, and Structure–Activity Relationship Analysis” (Molecules, 2023).
Entries after “also recorded” stand apart in the source; their conditions may differ. Like-named read-outs stand apart in the source and are kept apart here. Values belong to the compound of their own block, whether it stands above or below them.

Assays:
[1] = test system: macrophages from the peritoneal cavities of C57BL/6 mice; experiment: MTT cytotoxicity assay on macrophages; assay type: cell-based; settings: 30 μM, after supernatant collection (Figure 4C)
Experimental: After removing the supernatants, 100 μL of 0.5 mg/mL MTT in RPMI was added to each well. Cells were incubated overnight at 37 °C, and formazan crystals were dissolved in 100 µL of 0.04 M HCl in isopropanol. Then, the absorbance was measured at 570 nm using an ELISA plate reader. Cell viability was calculated using the following formula: % viability: [(OD sample) × 100%]/(OD control). Nonstimulated cells represented 100% viability.

IL-6 = experiment: LPS-induced IL-6 production in peritoneal macrophages (ELISA); assay type: cell-based, C57BL/6 mice
Experimental: (§1) Peritoneal macrophages were obtained by washing the peritoneal cavities of C57B1/6 mice five days after intraperitoneal instillation of 2 mL of 3% thioglycollate. Macrophages were seeded in RPMI containing 10% FCS at 2 × 10^5 cells/well in 96-well plates and cultured for 2 h at 37 °C under a 5% CO2 atmosphere. Adherent cells were pretreated with the compounds (30 μM) 1 h before stimulation with LPS (10 ng/mL). For dose–response experiments, compounds were used at concentrations of 1, 3, 10, and 30 μM. Supernatants were collected 6 h after LPS stimulation. Control and experimental treatments were performed in the presence of 0.5% DMSO, as the compounds were solubilized in this solvent. The concentrations of TNF-α, IL-6, and PGE2 were determined by ELISA (R&D System) following the manufacturer’s protocol.
(§2) Results from the cytokine measurements and cytotoxicity assays were analyzed using the statistical software package GraphPad Prism 9.4.0. All data are presented as the mean ± S.E.M. Statistical analysis was performed by Student’s t-test. The differences between samples were considered significant when p < 0.05. The 50% inhibitory concentration (IC50) was calculated by adjusting a sigmoidal dose–response curve following the standard procedure in GraphPad Prism 5.

TNF-α = experiment: LPS-induced TNF-α production in peritoneal macrophages (ELISA); assay type: cell-based, C57BL/6 mice; settings: for IC50: macrophages pretreated 1 h, supernatant 6 h, two independent experiments in triplicate, read-out: IC50 ± S.D. (μM) TNF-α
Experimental: as §1, §2

PGE2 = experiment: LPS-induced PGE2 production in peritoneal macrophages (ELISA); assay type: cell-based, C57BL/6 mice; settings: 30 μM, LPS 10 ng/mL, 6 h (Figure 6)
Experimental: as §1

[2] = Mus musculus, Macrophage, macrophages pretreated 1 h, LPS 10 ng/mL, supernatant 6 h, two independent experiments in triplicate, read-out: IC50 ± S.D. (μM) IL-6
[3] = Mus musculus, Peritoneal macrophage, converted from IL-6 IC50 of this work, used for 3D-QSAR, read-out: Experimental pIC50 (converted)
[4] = dose-response, 10 µM (Figure 5B)
[5] = dose-response, lowest concentration 1 µM (Figure 5B)
[6] = Mus musculus, Macrophage, LPS 10 ng/mL
[7] = dose-response, all concentrations tested (1, 3, 10, 30 μM) (Figure 5A)
[8] = single concentration 30 μM, LPS 10 ng/mL, 6 h (Figure 4A)

Compound: COc1cc(CCC(=O)/C=C(\O)CCc2ccc(OC(=O)CCC(=O)OC(c3ccccc3)c3ccccc3)c(OC)c2)ccc1OC(=O)CCC(=O)OC(c1ccccc1)c1ccccc1 [Compound 6, (Z)-Dibenzhydryl O,O′-((3-hydroxy-5-oxohept-3-ene-1,7-diyl)bis(2-methoxy-4,1-phenylene)) Disuccinate]
cytotoxicity (cell viability, MTT) [1]: cytotoxic

Compound: Curcumin [Compound 1, reference compound]
IC50 (IL-6; Table S1, compounds presented in the current work, read-out: IC50 ± S.D. (uM) IL-6): 6.85 ± 2.5 µM

Compound: COc1cc(CCC(=O)/C=C(\O)CCc2ccc(OC(=O)CCC(=O)OC3c4ccccc4-c4ccccc43)c(OC)c2)ccc1OC(=O)CCC(=O)OC1c2ccccc2-c2ccccc21 [Compound 4, (Z)-di(9H-Fluoren-9-yl)O,O′-((3-hydroxy-5-oxohept-3-ene-1,7-diyl)bis(2-methoxy-4,1-phenylene)) Disuccinate]
IC50 (IL-6; [2]): 4.28 ± 4.88 µM
IC50 (IL-6; [3]): 4.27 µM
inhibition of IL-6 production (IL-6; [4]): inhibited

Compound: COc1cc(CCC(=O)/C=C(\O)CCc2ccc(OC(=O)CCC(=O)OCc3ccccc3)c(OC)c2)ccc1OC(=O)CCC(=O)OCc1ccccc1 [Compound 9, (Z)-Dibenzyl O,O′-((3-Hydroxy-5-oxohept-3-ene-1,7-diyl)bis(2-methoxy-4,1-phenylene)) Disuccinate]
cytotoxicity (cell viability, MTT) [1]: cytotoxic

Compound: C#CCOC(=O)CCC(=O)Oc1ccc(CCC(=O)/C=C(\O)CCc2ccc(OC(=O)CCC(=O)OCC#C)c(OC)c2)cc1OC [Compound 3, (Z)-O,O′-((3-Hydroxy-5-oxohept-3-ene-1,7-diyl)bis(2-methoxy-4,1-phenylene)) di(prop-2-yn-1-yl) Disuccinate]
inhibition of IL-6 production (IL-6; single concentration 30 μM, LPS 10 ng/mL, 6 h (Figure 4B)): All compounds, except compound 3, inhibited the production of IL-6
reduction of PGE2 production (PGE2): significantly reduced; also recorded: highest activity

Compound: Tetrahydrocurcumin [Compound 2, reference compound]
inhibition of TNF-α production (TNF-α; [7]): inhibited
IC50 (TNF-α; LPS 10 ng/mL): 0.18 ± 0.18 µM
inhibition of TNF-α production (TNF-α; [8]): inhibited
Experimental pIC50 (IL-6; converted from IL-6 IC50 of this work, used for 3D-QSAR): 6.77
inhibition of IL-6 production (IL-6; [4]): inhibited
inhibition of IL-6 production (IL-6; [5]): inhibited
IC50 (IL-6; macrophages pretreated 1 h, LPS 10 ng/mL, supernatant 6 h, two independent experiments in triplicate, read-out: IC50 ± S.D. (μM) IL-6): 0.17 ± 0.2 µM
reduction of PGE2 production (PGE2): but not PGE2 production

Compound: COc1cc(CC/C(O)=C/C(=O)CCc2ccc(OC(=O)CCC(=O)O[C@@H]3C[C@H](C)CC[C@H]3C(C)C)c(OC)c2)ccc1OC(=O)CCC(=O)O[C@@H]1C[C@@H](C)CC[C@@H]1C(C)C [Compound 7, O,O′-(((Z)-3-Hydroxy-5-oxohept-3-ene-1,7-diyl)bis(2-methoxy-4,1-phenylene)) bis((1R,2S,5R)-2-Isopropyl-5-methylcyclohexyl) Disuccinate]
cytotoxicity (cell viability, MTT) [1]: cytotoxic

Now from value to compound, other results behind:

IC50 (IL-6; [2]): 0.17 ± 0.21 µM
IC50 (IL-6; [3]): 0.17 µM
Compound: COC(=O)CCC(=O)Oc1ccc(CCC(=O)/C=C(\O)CCc2ccc(OC(=O)CCC(=O)OC)c(OC)c2)cc1OC [Compound 11, (Z)-O,O′-((3-Hydroxy-5-oxohept-3-ene-1,7-diyl)bis(2-methoxy-4,1-phenylene)) dimethyl Disuccinate]
inhibition of TNF-α production (TNF-α; dose-response, 3 µM (Figure 5A)): showed an effect only when used at a concentration of 3 µM
inhibition of IL-6 production (IL-6; [5]): inhibited
reduction of PGE2 production (PGE2): significantly reduced; also recorded: highest activity

IC50 (TNF-α; [6]): 3.21 ± 4.52 µM
IC50 (IL-6; [2]): 3.48 ± 4.39 µM
IC50 (IL-6; [3]): 3.47 µM
Compound: COc1cc(CCC(=O)/C=C(\O)CCc2ccc(OC(=O)CCC(=O)OC3CCCc4ccccc43)c(OC)c2)ccc1OC(=O)CCC(=O)OC1CCCc2ccccc21 (stereo not shown) [Compound 8, (Z)-O,O′-((3-Hydroxy-5-oxohept-3-ene-1,7-diyl)bis(2-methoxy-4,1-phenylene)) bis(1,2,3,4-Tetrahydronaphthalen-1-yl) Disuccinate]
inhibition of IL-6 production (IL-6; [4]): inhibited

IC50 (TNF-α; [6]): 0.7 ± 0.1 µM
IC50 (IL-6; [2]): 0.72 ± 0.38 µM
IC50 (IL-6; [3]): 0.724 µM
Compound: C=CCOC(=O)CCC(=O)Oc1ccc(CCC(=O)/C=C(\O)CCc2ccc(OC(=O)CCC(=O)OCC=C)c(OC)c2)cc1OC [Compound 12, (Z)-Diallyl O,O′-((3-hydroxy-5-oxohept-3-ene-1,7-diyl)bis(2-methoxy-4,1-phenylene)) Disuccinate]
inhibition of TNF-α production (TNF-α; [7]): inhibited
inhibition of TNF-α production (TNF-α; [8]): inhibited
inhibition of IL-6 production (IL-6; [5]): inhibited
reduction of PGE2 production (PGE2): significantly reduced; also recorded: highest activity; also recorded: more biologically active than tetrahydrocurcumin

IC50 (IL-6; [2]): 3.66 ± 4.21 µM
IC50 (IL-6; [3]): 3.63 µM
Compound: COc1cc(CCC(=O)/C=C(\O)CCc2ccc(OC(=O)CCC(=O)OC3CCCC3)c(OC)c2)ccc1OC(=O)CCC(=O)OC1CCCC1 [Compound 10, (Z)-Dicyclopentyl O,O′-((3-Hydroxy-5-oxohept-3-ene-1,7-diyl)bis(2-methoxy-4,1-phenylene)) Disuccinate]

IC50 (IL-6; [2]): 9.13 ± 5.9 µM
IC50 (IL-6; [3]): 9.12 µM
Compound: COc1cc(CCC(=O)/C=C(\O)CCc2ccc(OC(=O)CCC(=O)OC3Cc4ccccc4C3)c(OC)c2)ccc1OC(=O)CCC(=O)OC1Cc2ccccc2C1 [Compound 5, (Z)-bis(2,3-Dihydro-1H-inden-2-yl) O,O′-((3-hydroxy-5-oxohept-3-ene-1,7-diyl)bis(2-methoxy-4,1-phenylene)) Disuccinate]
